Source: patent publication US12331026B2 (NiKang Therapeutics, Inc., priority 2022, dated 2025)

Target: T1, CDK2 (Homo sapiens, UniProt P24941)
T1 construct: endogenous in cells; host or cells: OVCAR3 cells
Experiment: Phospho-RB measurement in OVCAR3 cells (HTRF phospho-RB S807/811)
Format: cell-based
Conditions: phosphorylation of RB protein at S807/811, HTRF, 24 h compound treatment, 0.3 to 10,000 nM, read-out: pRb (uM)
Outline: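 IC50 values come from four-parameter logistic fits of the DMSO-normalised 665/620 nm TR-FRET ratio for phospho-RB (S807/811). Antibody detection ran 4 h at room temperature.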

Row | Compound | IC50
1 | O=S1(=O)CC2(CC(Nc3nccc(-c4sc(C56CC(C(F)(F)F)(C5)C6)nc4-c4cccc(NS(=O)(=O)c5c(Cl)cccc5C(F)(F)F)c4F)n3)C2)C1 [Example 91, 2-chloro-N-(3-(5-(2-((2,2-dioxido-2-thiaspiro[3.3]heptan-6-yl)amino)pyrimidin-4-yl)-2-(3-(trifluoromethyl)bicyclo-[1.1.1]pentan-1-yl)thiazol-4-yl)-2-fluorophenyl)-6-(trifluoromethyl)benzenesulfonamide] | 0.15 µM
2 | O=S1(=O)CC2(CC(Nc3nccc(-c4sc(C56CC(C(F)F)(C5)C6)nc4-c4cccc(NS(=O)(=O)c5c(F)cccc5C(F)(F)F)c4F)n3)C2)C1 [Example 92, N-(3-(2-(3-(difluoromethyl)bicyclo[1.1.1]pentan-1-yl)-5-(2-((2,2-dioxido-2-thiaspiro[3.3]heptan-6-yl)amino)pyrimidin-4-yl)thiazol-4-yl)-2-fluorophenyl)-2-fluoro-6-(trifluoromethyl)benzenesulfonamide] | 0.04 µM
3 | O=S1(=O)CC2C(C1)C2Nc1nccc(-c2sc(C34CC(C3)C4)nc2-c2cccc(NS(=O)(=O)c3c(F)cccc3F)c2F)n1 (stereo not shown) [Example 93, N-(3-(2-(bicyclo[1.1.1]pentan-1-yl)-5-(2-((3,3-dioxido-3-thiabicyclo[3.1.0]hexan-6-yl)amino)pyrimidin-4-yl)thiazol-4-yl)-2-fluorophenyl)-2,6-difluorobenzenesulfonamide] | 0.04 µM
4 | O=S1(=O)C[C@@H]2[C@H](C1)[C@@H]2Nc1nccc(-c2sc(N3C4CCC3CN(C3CC(F)(F)C3)C4)nc2-c2cccc(NS(=O)(=O)c3c(F)cccc3F)c2F)n1 [Example 94, N-(3-(2-(3-(3,3-difluorocyclobutyl)-3,8-diazabicyclo[3.2.1]octan-8-yl)-5-(2-(((1R,5S,6s)-3,3-dioxido-3-thiabicyclo[3.1.0]hexan-6-yl)amino)pyrimidin-4-yl)thiazol-4-yl)-2-fluorophenyl)-2,6-difluorobenzenesulfonamide] | 0.28 µM
5 | O=S1(=O)C[C@@H]2[C@H](C1)[C@H]2Nc1nccc(-c2sc(C3(C(F)F)CC3)nc2-c2cccc(NS(=O)(=O)c3c(F)cccc3F)c2F)n1 [Example 98, N-(3-(2-(1-(difluoromethyl)cyclopropyl)-5-(2-(((1R,5S,6r)-3,3-dioxido-3-thiabicyclo[3.1.0]hexan-6-yl)amino)pyrimidin-4-yl)thiazol-4-yl)-2-fluorophenyl)-2,6-difluorobenzenesulfonamide] | 0.13 µM
6 | O=S1(=O)C[C@@H]2[C@H](C1)[C@H]2Nc1nccc(-c2sc(C34CCC(CC3)C4)nc2-c2cccc(NS(=O)(=O)c3c(F)cccc3F)c2F)n1 [Example 99, N-(3-(2-(bicyclo[2.2.1]heptan-1-yl)-5-(2-(((1R,5S,6r)-3,3-dioxido-3-thiabicyclo[3.1.0]hexan-6-yl)amino)pyrimidin-4-yl)thiazol-4-yl)-2-fluorophenyl)-2,6-difluorobenzenesulfonamide] | 0.06 µM
7 | CC1(C)CCN1c1nc(-c2cccc(NS(=O)(=O)c3c(F)cccc3F)c2F)c(-c2ccnc(N[C@H]3[C@@H]4CS(=O)(=O)C[C@@H]43)n2)s1 [Example 100, N-(3-(2-(2,2-dimethylazetidin-1-yl)-5-(2-(((1R,5S,6r)-3,3-dioxido-3-thiabicyclo[3.1.0]hexan-6-yl)amino)pyrimidin-4-yl)thiazol-4-yl)-2-fluorophenyl)-2,6-difluorobenzenesulfonamide] | 0.1 µM
8 | C[C@H]1COC[C@H](C)N1c1nc(-c2cccc(NS(=O)(=O)c3c(F)cccc3F)c2F)c(-c2ccnc(N[C@H]3[C@@H]4CS(=O)(=O)C[C@@H]43)n2)s1 [Example 101, N-(3-(2-((3S,5S)-3,5-dimethylmorpholino)-5-(2-(((1R,5S,6r)-3,3-dioxido-3-thiabicyclo[3.1.0]hexan-6-yl)amino)pyrimidin-4-yl)thiazol-4-yl)-2-fluorophenyl)-2,6-difluorobenzenesulfonamide] | 0.17 µM
9 | O=S1(=O)C[C@@H]2[C@H](C1)[C@@H]2Nc1nccc(-c2sc(C34CC(C3)C4)nc2-c2cccc(NS(=O)(=O)c3c(F)cccc3C(F)(F)F)c2F)n1 [Example 102, N-(3-(2-(bicyclo[1.1.1]pentan-1-yl)-5-(2-(((1R,5S,6s)-3,3-dioxido-3-thiabicyclo[3.1.0]hexan-6-yl)amino)pyrimidin-4-yl)thiazol-4-yl)-2-fluorophenyl)-2-fluoro-6-(trifluoromethyl)benzenesulfonamide] | 0.19 µM
10 | O=S1(=O)C[C@@H]2[C@H](C1)[C@H]2Nc1nccc(-c2sc(C34CC(C3)C4)nc2-c2cccc(NS(=O)(=O)c3c(F)cccc3C(F)(F)F)c2F)n1 [Example 103, N-(3-(2-(bicyclo[1.1.1]pentan-1-yl)-5-(2-(((1R,5S,6r)-3,3-dioxido-3-thiabicyclo[3.1.0]hexan-6-yl)amino)pyrimidin-4-yl)thiazol-4-yl)-2-fluorophenyl)-2-fluoro-6-(trifluoromethyl)benzenesulfonamide] | 0.1 µM
11 | CS(=O)(=O)[C@H]1CC[C@H](Nc2nccc(-c3sc(C4(C(F)(F)F)CC4)nc3-c3cccc(NS(=O)(=O)c4c(F)cccc4C(F)(F)F)c3F)n2)CC1 [Example 104, 2-fluoro-N-(2-fluoro-3-(5-(2-(((1r,4r)-4-(methylsulfonyl)-cyclohexyl)amino)pyrimidin-4-yl)-2-(1-(trifluoromethyl)-cyclopropyl)thiazol-4-yl)phenyl)-6-(trifluoromethyl)benzenesulfonamide] | 0.08 µM
12 | O=S1(=O)C[C@@H]2[C@H](C1)[C@@H]2Nc1nccc(-c2sc(N3C4CCC3CN(C3CC(F)(F)C3)C4)nc2-c2cccc(NS(=O)(=O)c3c(F)cccc3F)c2F)n1 [Example 106, N-(3-(2-(3-(3,3-difluorocyclobutyl)-3,8-diazabicyclo[3.2.1]octan-8-yl)-5-(2-(((1R,5S,6s)-3,3-dioxido-3-thiabicyclo[3.1.0]hexan-6-yl)amino)pyrimidin-4-yl)thiazol-4-yl)-2-fluorophenyl)-2,6-difluorobenzenesulfonamide] | 0.68 µM
13 | O=S1(=O)C[C@@H]2[C@H](C1)[C@H]2Nc1nccc(-c2sc(N3C4CCC3CN(C3CC(F)(F)C3)C4)nc2-c2cccc(NS(=O)(=O)c3c(F)cccc3F)c2F)n1 [Example 107, N-(3-(2-(3-(3,3-difluorocyclobutyl)-3,8-diazabicyclo[3.2.1]octan-8-yl)-5-(2-(((1R,5S,6r)-3,3-dioxido-3-thiabicyclo[3.1.0]hexan-6-yl)amino)pyrimidin-4-yl)thiazol-4-yl)-2-fluorophenyl)-2,6-difluorobenzenesulfonamide] | 0.15 µM
14 | O=S1(=O)C[C@@H]2[C@H](C1)[C@@H]2Nc1nccc(-c2sc(N3C4CCC3CN(C3CC(F)(F)C3)C4)nc2-c2cccc(NS(=O)(=O)c3c(F)cccc3C(F)(F)F)c2F)n1 [Example 108, N-(3-(2-(3-(3,3-difluorocyclobutyl)-3,8-diazabicyclo[3.2.1]octan-8-yl)-5-(2-(((1R,5S,6s)-3,3-dioxido-3-thiabicyclo[3.1.0]hexan-6-yl)amino)pyrimidin-4-yl)thiazol-4-yl)-2-fluorophenyl)-2-fluoro-6-(trifluoromethyl)benzenesulfonamide] | 0.1 µM
15 | O=S1(=O)C[C@@H]2[C@H](C1)[C@H]2Nc1nccc(-c2sc(N3C4CCC3CN(C3CC(F)(F)C3)C4)nc2-c2cccc(NS(=O)(=O)c3c(F)cccc3C(F)(F)F)c2F)n1 [Example 109, N-(3-(2-(3-(3,3-difluorocyclobutyl)-3,8-diazabicyclo[3.2.1]octan-8-yl)-5-(2-(((1R,5S,6r)-3,3-dioxido-3-thiabicyclo[3.1.0]hexan-6-yl)amino)pyrimidin-4-yl)thiazol-4-yl)-2-fluorophenyl)-2-fluoro-6-(trifluoromethyl)benzenesulfonamide] | 0.09 µM
16 | CN1CC2CCC(C1)N2c1nc(-c2cccc(NS(=O)(=O)c3c(F)cccc3C(F)(F)F)c2F)c(-c2ccnc(NC3[C@H]4CS(=O)(=O)C[C@@H]34)n2)s1 (stereo partly drawn) [Example 111, N-(3-(5-(2-(((1R,5S,6s)-3,3-dioxido-3-thiabicyclo[3.1.0]hexan-6-yl)amino)pyrimidin-4-yl)-2-(3-methyl-3,8-diazabicyclo[3.2.1]octan-8-yl)thiazol-4-yl)-2-fluorophenyl)-2-fluoro-6-(trifluoromethyl)benzenesulfonamide] | 0.08 µM
17 | O=S1(=O)CC2C(C1)C2Nc1nccc(-c2sc(N3C4CCC3COC4)nc2-c2cccc(NS(=O)(=O)c3c(F)cccc3C(F)(F)F)c2F)n1 (stereo not shown) [Example 112, N-(3-(2-(3-oxa-8-azabicyclo[3.2.1]octan-8-yl)-5-(2-((3,3-dioxido-3-thiabicyclo[3.1.0]hexan-6-yl)amino)pyrimidin-4-yl)thiazol-4-yl)-2-fluorophenyl)-2-fluoro-6-(trifluoromethyl)benzenesulfonamide] | 0.03 µM
18 | O=S1(=O)C[C@@H]2[C@H](C1)[C@H]2Nc1nccc(-c2sc(C34CC(C3)C4)nc2-c2cccc(NS(=O)(=O)c3c(F)cccc3OC(F)F)c2F)n1 [Example 113, N-(3-(2-(bicyclo[1.1.1]pentan-1-yl)-5-(2-(((1R,5S,6r)-3,3-dioxido-3-thiabicyclo[3.1.0]hexan-6-yl)amino)pyrimidin-4-yl)thiazol-4-yl)-2-fluorophenyl)-2-(difluoromethoxy)-6-fluorobenzenesulfonamide] | 0.07 µM
19 | C[C@H]1COC[C@H](C)N1c1nc(-c2cccc(NS(=O)(=O)c3c(F)cccc3C(F)(F)F)c2F)c(-c2ccnc(N[C@H]3[C@@H]4CS(=O)(=O)C[C@@H]43)n2)s1 [Example 114, N-(3-(2-((3S,5S)-3,5-dimethylmorpholino)-5-(2-(((1R,5S,6r)-3,3-dioxido-3-thiabicyclo[3.1.0]hexan-6-yl)amino)pyrimidin-4-yl)thiazol-4-yl)-2-fluorophenyl)-2-fluoro-6-(trifluoromethyl)benzenesulfonamide] | 0.3 µM
